Here are results for two molecules from EP1331219A1.

Where a name gives a salt, the structure may show the parent alone.

Format in all cases: binding, mouse
Assay [1] has as its system murine monoclonal antibody 6H5D1C4 (DASM243-6H5D1C4). Put plainly: Competition ELISA on BSA-Met1 coated plates: cross reactivity with methamphetamine analogs. Conditions: methamphetamine recognized more than ecstasy.
The target of assay [2] is murine monoclonal antibody DASM243-A10A6A2 (IgG1), raised against TT-Met1. Put plainly: RIA: affinity determination by competition between labeled and unlabeled metabolite. The conditions noted are these: purified mAb, calculated by the method of Müller from IC50.
Assay [3] has as its target murine monoclonal antibody DASM243-6H5D1C4 (IgG2b), raised against TT-Met1. Described as above. Conditions: purified mAb, calculated by the method of Müller from IC50.

Consider `CN[C@@H](C)Cc1ccccc1` [Methamphetamine, methamphetamine], for which the “recognition of methamphetamine relative to ecstasy” value in assay [1] is 10 times.
Regarding `CNC(C)Cc1ccccc1` (stereo not drawn) [methamphetamine oxalate], the Ka is 5.58e+06 M⁻¹ in assay [2] and 2.58e+08 M⁻¹ in assay [3].
